Assay results reported in paper PMC11358882, “Neuroprotective Effects of Phenolic Constituents from Drynariae Rhizoma” (Pharmaceuticals, 2024).
Where “and” joins values, the source holds several entries; their conditions need not be identical. Equal values may be shown once. Read-outs that look alike come from different tables or passages of the source.

Key:
AChE from electric eel = molecular target: T1, AChE from electric eel (Electrophorus electricus, UniProt O42275); experiment: biochemical; assay type: biochemical
T1 construct: purchased Sigma-Aldrich Co., St. Louis, USA
Description: (§1) The AChE- and BChE-inhibitory, MTT, and Th T assays were analyzed using a UV–visible (VIS) spectrophotometer (Biotek, EPOCH2, Winooski, VT, USA), ensuring accurate measurements. For BACE1- and MAO-B-inhibitory assays, a multimode microplate reader (SpectraMax M3, Molecular Devices, San Jose, CA, USA) was employed, providing precise readings. Analytical-grade DMSO from DEAJUNG Chemical, Korea, served as a solvent in the bioassays. Reagents and solvents, including AChE from electric eel, acetylthiocholine iodide (ATCh), BChE from equine serum, S-butyrylthiocholine iodide (BTCh), 5,5′-dithiobis [2-nitrobenzoic acid] […] Additionally, the BACE1-inhibitory assay utilized the BACE1 (β-secretase) FRET assay kit from PanVera® Corporation, Madison, USA, while the MAO-B-inhibitory assay employed the MAO-B Inhibitor Screening Kit (Fluorometric) ab284511 from Abcam plc Co., Cambridge, UK.
(§2) The inhibitory activities against cholinesterases (AChE and BChE) were evaluated using a spectrophotometric method previously developed by Ellman et al.. Specifically, ATCh and BTCh were used as substrates to measure the inhibitory effects on AChE and BChE, respectively. The assay mixture consisted of 140 μL of 0.1 M sodium phosphate buffer at pH 7.8, 20 μL of a 0.38 U/mL solution of either AChE or BChE, and 20 μL of the test sample solution. This mixture was thoroughly mixed and then incubated at room temperature for 15 min. […] Reactions were initiated by adding 10 μL of 0.5 mM DTNB and 10 μL of either 0.6 mM ATCh or BTCh. ChE-inhibitory activity was monitored by measuring the formation of the yellow 5-thio-2-nitrobenzoate anion at 412 nm over 15 min (Epoch, BioTek, Winooski, VT, USA), resulting from the reaction of DTNB and thiocholine released from ATCh or BTCh. All reactions were conducted in 96-well microplates and performed in triplicate. The percentage of inhibition (%) was determined using the following formula: inhibition (%)={(Ac−As)/Ac}×100 , where Ac represents the enzyme activity in the absence of the test sample, and As represents the enzyme activity in the presence of the test sample. The ChE-inhibitory activities of each sample were quantified in terms of IC50, which was calculated from the log–dose inhibition curve.

BACE1 = molecular target: T2, BACE1 (Homo sapiens, UniProt P56817); experiment: BACE1 (β-secretase) FRET inhibitory assay; assay type: biochemical
T2 construct: purchased PanVera Corporation, Madison, WI, USA P2985
Description: The BACE1 inhibition assay was conducted using the BACE1 (β-secretase) FRET Assay Kit, Red Protocol, part number P2985 (PanVera® Corporation, Madison, WI, USA), following the manufacturer’s recommended protocol with minor modifications. The assay mixture consisted of 10 μL of BACE1 (1.0 U/mL), 10 μL of substrate (750 nM Rh-[…]-Quencher in 50 mM ammonium bicarbonate), the assay buffer (50 mM sodium acetate, pH 4.5), and 10 μL of the test samples. […] The reaction mixture was incubated for 60 min at room temperature in darkness. Before measurement, a stop solution (2.5 M sodium acetate) was added to halt the reaction. BACE1 enzyme activity was assessed by monitoring the proteolysis of two fluorophores (Rh-[…]-Quencher), forming the fluorescent donor (Rh-EVNL) with increased fluorescence wavelengths at 530–545 nm (excitation) and 570–590 nm (emission), respectively. All reactions were recorded in black 96-well microplates and performed in triplicate. The percentage of inhibition (%) was calculated using the following formula: inhibition (%)=[1−(S60−S0)/(C60−C0)]×100 , where C60 represents the fluorescence of the control after incubation, C0 represents the initial fluorescence of the control, S60 represents the fluorescence of the tested sample after incubation, and S0 represents the initial fluorescence of the tested sample. The BACE1-inhibitory activities of each sample were quantified in terms of IC50, which was determined from the log–dose inhibition curve.

MAO-B = molecular target: T3, MAO-B (Homo sapiens, UniProt P27338); experiment: MAO-B inhibitor screening kit (fluorometric) assay; assay type: biochemical; conditions: isolated compounds; mean ± SD, n = 3; ND = no detection using test concentration
T3 construct: purchased Abcam plc, Cambridge, UK ab284511
T3 sequence (P27338 1-520): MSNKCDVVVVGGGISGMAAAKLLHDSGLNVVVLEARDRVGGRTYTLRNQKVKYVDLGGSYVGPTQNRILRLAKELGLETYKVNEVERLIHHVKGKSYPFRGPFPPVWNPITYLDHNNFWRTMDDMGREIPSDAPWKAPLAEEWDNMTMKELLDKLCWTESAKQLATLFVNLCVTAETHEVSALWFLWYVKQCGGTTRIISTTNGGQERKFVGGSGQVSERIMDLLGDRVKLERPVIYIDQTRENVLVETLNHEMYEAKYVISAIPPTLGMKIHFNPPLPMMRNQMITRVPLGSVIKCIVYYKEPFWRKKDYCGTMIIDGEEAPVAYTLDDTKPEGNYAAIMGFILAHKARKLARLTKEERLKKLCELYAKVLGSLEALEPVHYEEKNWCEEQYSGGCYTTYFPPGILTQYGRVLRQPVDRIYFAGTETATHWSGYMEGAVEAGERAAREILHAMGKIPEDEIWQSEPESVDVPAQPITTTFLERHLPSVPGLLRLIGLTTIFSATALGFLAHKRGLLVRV
Description: The MAO-B-inhibition assay was conducted using the MAO-B Inhibitor Screening Kit (Fluorometric) ab284511 (Abcam plc, Cambridge, UK), following the manufacturer’s recommended protocol with minor modifications. The enzyme solution (50 µL) and the test sample (10 µL) were adjusted as per the manual instructions. […] After mixing, samples and enzymes were incubated at 25 °C for 10 min. Subsequently, 40 μL of MAO-B substrate (comprising MAO-B assay buffer, MAO substrate, developer, and OxiRed probe) was added, followed by further incubation at 25 °C for 5 min. Fluorescence was measured using enzyme-linked immunosorbent assay within 40 min with dynamic fluorescence (Ex/Em = 535/587 nm). All reactions were recorded in black 96-well microplates and performed in triplicate. The slope for all samples, including the enzyme control (EC), was calculated by dividing the net ΔRFU (RFU2–RFU1) values by the time Δt (T2 − T1). The % relative inhibition was computed as follows: % relative inhibition=(slope of EC−slope of S)/slope of EC×100 . The MAO-B-inhibitory activities of each sample were quantified in terms of IC50, as determined from the log–dose inhibition curve.

BChE from equine serum = molecular target: T4, BChE from equine serum (Equus caballus, UniProt P81908); experiment: biochemical; assay type: biochemical
T4 construct: BChE from equine serum; purchased Sigma-Aldrich Co., St. Louis, USA; host or cells: equine serum
Description: as §1, §2

β-secretase = experiment: Western blot of β-secretase levels in APP-CHO cells; assay type: cell-based, Chinese hamster; conditions: 24 h; for reduction of β-secretase levels compared to DMSO-treated controls: 1.0 μM
Description: (§3) APP-CHO cells were seeded in six-well plates at a density of 6 × 10^5 cells/1000 μL of medium per well and incubated at 37 °C overnight for cell attachment. Then, the medium was replaced with FBS-free RPMI 1640 for 1 h, followed by treatment with test samples at 37 °C. After 24 h, the cells were washed with PBS and lysed in Laemmli sample buffer. The collected cell lysates were boiled at 100 °C for 10 min. For Western blot analysis, 20 μg of proteins were separated by 7.5% SDS-PAGE and transferred to a PVDF membrane using Trans-Blot® Turbo TM (Bio-Rad, Hercules, CA, USA). The membrane was blocked with 5% skim milk in PBS for 1 h and incubated with primary antibodies overnight at 4 °C. The primary antibodies used were sAPPβ antibody, BACE1 antibody, and α-tubulin antibody diluted at 1:1000, 1:1000, and 1:25,000, respectively. After washing with PBS-T (0.1% Tween 20 in PBS) three times for 10 min each, secondary antibodies, diluted to 1:2500, were incubated for 1 h. Protein detection was performed using ECL solution reagent and protein visualization (ChemiDoc^TM XRS+., Bio-Rad, Hercules, CA, USA). The signal intensity of the bands was quantified and normalized to the signal intensity of the α-tubulin band. Results were expressed as a percentage of DMSO-treated control.

[1] = test system: cultured cortical neurons; parameters: method as in PMID 26299900; conditions: cited from earlier work
sAPPβ = experiment: Western blot of sAPPβ levels in APP-CHO cells; assay type: cell-based, Chinese hamster; conditions: 24 h; for reduction of sAPPβ levels compared to DMSO-treated controls: 1.0 μM
Description: as §3

[2] = isolated compounds, mean ± SD, n = 3, read-out: IC50 BACE1
[3] = isolated compounds, mean ± SD, n = 3, ND = no detection using test concentration, read-out: IC50 BChE
[4] = isolated compounds, mean ± SD, n = 3, ND = no detection using test concentration, read-out: IC50 AChE
[5] = isolated compounds, mean ± SD, n = 3, ND = no detection using test concentration

T1 sequence (O42275 24-633): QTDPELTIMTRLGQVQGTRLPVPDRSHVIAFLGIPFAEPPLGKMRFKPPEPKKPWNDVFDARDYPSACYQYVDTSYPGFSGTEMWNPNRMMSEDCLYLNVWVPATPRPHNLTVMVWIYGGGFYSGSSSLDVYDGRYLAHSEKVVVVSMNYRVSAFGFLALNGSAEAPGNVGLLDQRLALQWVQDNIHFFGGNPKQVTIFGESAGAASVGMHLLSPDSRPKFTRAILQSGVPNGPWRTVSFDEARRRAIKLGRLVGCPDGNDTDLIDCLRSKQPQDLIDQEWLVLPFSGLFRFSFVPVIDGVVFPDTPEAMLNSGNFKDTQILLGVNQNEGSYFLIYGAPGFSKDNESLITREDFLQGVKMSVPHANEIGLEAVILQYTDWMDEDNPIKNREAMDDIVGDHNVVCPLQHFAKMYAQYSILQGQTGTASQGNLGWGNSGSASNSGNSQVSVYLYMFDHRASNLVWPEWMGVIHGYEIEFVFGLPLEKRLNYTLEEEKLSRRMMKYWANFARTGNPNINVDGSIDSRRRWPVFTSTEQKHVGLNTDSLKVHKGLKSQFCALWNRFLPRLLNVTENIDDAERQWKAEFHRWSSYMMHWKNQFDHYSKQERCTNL
T2 sequence (P56817 46-501): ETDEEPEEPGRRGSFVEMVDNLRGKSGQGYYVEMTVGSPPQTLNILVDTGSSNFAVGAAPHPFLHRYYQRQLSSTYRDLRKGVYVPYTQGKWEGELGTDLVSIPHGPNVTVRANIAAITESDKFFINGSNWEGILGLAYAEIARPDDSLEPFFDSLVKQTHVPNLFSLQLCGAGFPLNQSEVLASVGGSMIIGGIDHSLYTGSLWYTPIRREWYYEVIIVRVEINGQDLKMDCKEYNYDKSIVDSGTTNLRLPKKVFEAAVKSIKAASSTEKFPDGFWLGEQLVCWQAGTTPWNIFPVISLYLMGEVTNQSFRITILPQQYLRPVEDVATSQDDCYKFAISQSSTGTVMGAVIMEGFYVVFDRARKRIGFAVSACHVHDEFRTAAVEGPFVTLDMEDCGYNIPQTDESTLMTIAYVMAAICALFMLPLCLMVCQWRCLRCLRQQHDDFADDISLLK
T4 sequence (P81908 whole entry): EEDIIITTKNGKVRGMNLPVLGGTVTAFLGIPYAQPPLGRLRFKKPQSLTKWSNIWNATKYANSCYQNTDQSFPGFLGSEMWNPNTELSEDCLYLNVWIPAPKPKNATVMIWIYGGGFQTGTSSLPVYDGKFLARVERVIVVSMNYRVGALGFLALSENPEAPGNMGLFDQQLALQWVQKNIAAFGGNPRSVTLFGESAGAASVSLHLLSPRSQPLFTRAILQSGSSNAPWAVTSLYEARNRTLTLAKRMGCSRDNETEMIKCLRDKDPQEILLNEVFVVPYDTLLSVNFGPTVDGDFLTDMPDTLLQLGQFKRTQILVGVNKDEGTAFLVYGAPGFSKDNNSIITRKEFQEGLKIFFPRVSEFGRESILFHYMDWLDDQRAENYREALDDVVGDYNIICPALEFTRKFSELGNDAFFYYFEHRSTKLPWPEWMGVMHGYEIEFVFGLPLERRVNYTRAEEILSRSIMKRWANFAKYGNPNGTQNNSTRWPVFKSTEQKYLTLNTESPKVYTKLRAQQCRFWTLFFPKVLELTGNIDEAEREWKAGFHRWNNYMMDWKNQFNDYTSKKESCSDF

SMILES: COc1ccc2cc3[n+](cc2c1OC)CCc1cc2c(cc1-3)OCO2 [Berberine, berberine, reference compound]
- IC50 (AChE from electric eel): 0.119 µM

SMILES: O=C(O)/C=C/c1ccc(O[C@@H]2O[C@H](CO)[C@@H](O)[C@H](O)[C@H]2O)cc1 [Compound 1, coumaric acid 4-O-β-D-glucopyranoside]
- IC50 (BACE1; [2]): > 1000 µM
- IC50 (MAO-B): > 1000 µM
- IC50 (BChE from equine serum; [3]): 53.8 ± 1.15 µM
- IC50 (AChE from electric eel; [4]): 33.4 ± 0.42 µM

SMILES: O=C(O)/C=C/c1ccc(O[C@@H]2O[C@H](CO)[C@@H](O)[C@H](O)[C@H]2O)c(O)c1 [Compound 2, caffeic acid 4-O-β-D-glucopyranoside]
- reduction of β-secretase expression levels (β-secretase; 0.5 μM): 40%
- IC50 (BACE1; [2]): 45 ± 0.48 µM
- IC50 (MAO-B): 401.3 ± 2.66 µM
- IC50 (BChE from equine serum; [3]): 488 ± 10.1 µM
- IC50 (AChE from electric eel; [4]): 14.77 ± 0.07 µM
- axonal regrowth effect on Aβ25–35-induced atrophy ([1]; 10 μM): significant axonal regrowth effects
- reduction of sAPPβ expression levels (sAPPβ; 0.5 μM): 50%

SMILES: COc1cc(/C=C/C(=O)O)ccc1O[C@@H]1O[C@H](CO)[C@@H](O)[C@H](O)[C@H]1O [Compound 3, lavandoside]
- IC50 (BACE1; [2]): 235 ± 6.86 µM
- IC50 (MAO-B): 155 ± 7.18 µM
- IC50 BChE (BChE from equine serum; [5]): did not demonstrate cholinesterase-inhibitory activity
- IC50 AChE (AChE from electric eel; [5]): did not demonstrate cholinesterase-inhibitory activity

SMILES: COc1cc(/C=C/C(=O)O)cc(OC)c1O[C@@H]1O[C@H](CO)[C@@H](O)[C@H](O)[C@H]1O [Compound 4, trans-p-sinapoyl-β-D-glucopyranoside]
- IC50 (BACE1; [2]): 147.4 ± 0.74 µM
- IC50 (MAO-B): 600.9 ± 3.72 µM
- IC50 (BChE from equine serum; [3]): 30.6 ± 0.38 µM

SMILES: C[C@@H]1O[C@@H](O[C@H]2[C@H](Oc3cc(O)c4c(=O)ccoc4c3)O[C@H](CO)[C@@H](O)[C@@H]2O)[C@H](O)[C@H](O)[C@H]1O [Compound 5, 5,7-dihydroxychromone-7-O-neohesperidoside]
- IC50 (BACE1; [2]): > 1000 µM
- IC50 (BChE from equine serum; [3]): 38.8 ± 0.71 µM
- IC50 (AChE from electric eel; [4]): > 1000 µM

SMILES: C[C@@H]1O[C@@H](O[C@H]2[C@H](Oc3cc(O)c4c(c3)O[C@H](c3ccc(O)c(O)c3)CC4=O)O[C@H](CO)[C@@H](O)[C@@H]2O)[C@H](O)[C@H](O)[C@H]1O [Compound 8, neoeriocitrin]
- IC50 (BACE1): 13.7 ± 0.14 µM
- IC50 (MAO-B): 2.64 ± 0.016 µM
- IC50 (BChE from equine serum): 30.04 ± 0.23 µM
- IC50 (AChE from electric eel): 31.65 ± 0.14 µM
- axonal regrowth effect on Aβ25–35-induced atrophy ([1]; 1 and 10 μM): significant axonal regrowth effects

SMILES: C[C@@H]1O[C@@H](O[C@H]2[C@H](Oc3cc(O)c4c(c3)O[C@H](c3ccc(O)cc3)CC4=O)O[C@H](CO)[C@@H](O)[C@@H]2O)[C@H](O)[C@H](O)[C@H]1O [Compound 9, naringin]
- reduction of β-secretase levels compared to DMSO-treated controls (β-secretase): 40% and 30%
- IC50 (BACE1; [2]): 64.95 ± 0.17 µM
- IC50 (MAO-B): 51.26 ± 0.14 µM
- IC50 (BChE from equine serum): 252 ± 12.3 µM
- IC50 (AChE from electric eel): 124 ± 35.3 µM
- reduction of sAPPβ levels compared to DMSO-treated controls (sAPPβ): 30%

SMILES: COc1ccc([C@@H]2CC(=O)c3c(O)cc(O[C@@H]4O[C@H](CO[C@@H]5O[C@@H](C)[C@H](O)[C@@H](O)[C@H]5O)[C@@H](O)[C@H](O)[C@H]4O)cc3O2)cc1O [Compound 10, hesperidin]
- reduction of β-secretase levels compared to DMSO-treated controls (β-secretase): 30%
- IC50 (BACE1; [2]): 55.72 ± 0.17 µM
- IC50 (MAO-B): 98.77 ± 0.14 µM
- IC50 (BChE from equine serum): 331.77 ± 0.14 µM
- IC50 (AChE from electric eel): 57.7 ± 5.96 µM
- reduction of sAPPβ levels compared to DMSO-treated controls (sAPPβ): 30%
